Source: PMC6858373 (Scientific Reports, 2019)
Where two headings read alike, the source gives them in different places.

Key:
[1] = target: T1, FGF14:Nav1.6 C-tail complex (Homo sapiens, UniProt Q92915+Q9UQD0); assay: Split-luciferase complementation assay (LCA) in Clone V double stable HEK293 cells; type: cell-based; conditions: for Split Luciferase Assay Z-score Set 1 / Split Luciferase Assay Z-score Set 2: normalized to on-plate 0.3% DMSO controls
T1 construct: polymerase chain reaction (PCR) amplification of the FGF14 open reading frame (nt 1–855); C-terminal fragment of Nav1.6 (amino acids 1763–1976) fused with CD4ΔC-tail (amino acids 1–395); expressed in transfected cells
T1 sequence (Q92915 1-252 isoform Q92915-2): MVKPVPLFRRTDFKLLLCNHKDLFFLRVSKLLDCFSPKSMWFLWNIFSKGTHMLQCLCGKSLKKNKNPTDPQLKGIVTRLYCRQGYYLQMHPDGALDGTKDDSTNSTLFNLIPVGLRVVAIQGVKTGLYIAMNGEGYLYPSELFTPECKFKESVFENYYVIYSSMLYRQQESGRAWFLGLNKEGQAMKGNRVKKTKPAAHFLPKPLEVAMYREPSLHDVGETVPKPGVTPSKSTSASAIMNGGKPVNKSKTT
T1 sequence (Q9UQD0 1763-1976 limits assumed): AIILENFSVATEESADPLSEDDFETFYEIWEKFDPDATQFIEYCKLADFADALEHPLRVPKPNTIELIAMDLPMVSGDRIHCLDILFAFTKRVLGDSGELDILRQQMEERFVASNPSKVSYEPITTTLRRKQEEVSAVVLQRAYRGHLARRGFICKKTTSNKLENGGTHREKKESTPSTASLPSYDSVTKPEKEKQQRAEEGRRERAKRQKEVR

[2] = target: full-length P. pyralis luciferase (Photinus pyralis, UniProt P08659, K549A/L550V/N119G/N50D/S548I); type: cell-based; conditions: CC_NCI screening, normalized to on-plate 0.3% DMSO controls; for Luciferase Assay % Lum: full-length luciferase counter-screen luminescence; for Luciferase Assay Z-score: full-length luciferase counter-screen
full-length P. pyralis luciferase, sequence (P08659 whole entry N50D/N119G/S548I/K549A/L550V, looked up): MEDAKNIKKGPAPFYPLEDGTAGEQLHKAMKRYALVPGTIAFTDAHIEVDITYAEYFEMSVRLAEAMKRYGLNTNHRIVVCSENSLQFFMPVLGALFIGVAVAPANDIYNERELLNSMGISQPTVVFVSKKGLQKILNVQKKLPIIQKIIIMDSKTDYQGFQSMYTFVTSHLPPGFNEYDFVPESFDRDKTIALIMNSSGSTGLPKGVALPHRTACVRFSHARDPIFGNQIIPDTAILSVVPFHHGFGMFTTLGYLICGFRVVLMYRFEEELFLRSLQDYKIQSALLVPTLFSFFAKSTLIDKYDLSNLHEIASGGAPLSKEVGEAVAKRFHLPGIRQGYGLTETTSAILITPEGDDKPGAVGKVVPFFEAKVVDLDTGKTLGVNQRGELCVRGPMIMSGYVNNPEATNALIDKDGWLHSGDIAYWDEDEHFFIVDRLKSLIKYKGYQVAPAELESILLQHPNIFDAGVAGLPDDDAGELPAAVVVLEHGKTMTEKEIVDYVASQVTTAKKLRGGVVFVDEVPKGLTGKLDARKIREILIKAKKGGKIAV

Clone V cells = assay: CellTiter Blue (CTB) cell viability counter-screen; conditions: CC_NCI screening, normalized to on-plate 0.3% DMSO controls; for Toxicity Assay % Fluor: CTB cell viability fluorescence; for Toxicity Assay Z-score: CTB cell viability
[3] = CC_NCI screening, LCA, biological replicate Set 1
[4] = CC_NCI screening, LCA, biological replicate Set 2
[5] = CC_NCI screening, LCA luminescence, biological replicate Set 1, normalized to on-plate 0.3% DMSO controls (n=16 per plate)
[6] = CC_NCI screening, LCA luminescence, biological replicate Set 2, normalized to on-plate 0.3% DMSO controls (n=16 per plate)
[7] = CC_NCI screening, average of Set 1 and Set 2, normalized to 0.3% DMSO controls

C=C1C[C@@H]2[C@H](CC[C@]3(C)C(=O)CC[C@@H]23)[C@@]2(C)C=CC(=O)C=C12 [Exemestane]
Split Luciferase Assay % Lum Set 1 [1]: 109.04% | Split Luciferase Assay %Lum Avg [1]: 102.89% | Split Luciferase Assay %Lum Set 2 [1]: 96.75% | Split Luciferase Assay Z-score Set 1 [1, 3]: 0.73 | Split Luciferase Assay Z-score Set 2 [1, 4]: -0.26 | Luciferase Assay % Lum [2]: 90.38% | Luciferase Assay Z-score [2]: -1.23 | Toxicity Assay % Fluor (Clone V cells): 91.81% | Toxicity Assay Z-score (Clone V cells): -1.14

O=C(c1cc(Cc2n[nH]c(=O)c3ccccc23)ccc1F)N1CCN(C(=O)C2CC2)CC1 [AZD 2281]
Split Luciferase Assay % Lum Set 1 [1, 5]: 117.73% | Split Luciferase Assay %Lum Set 2 [1, 6]: 92.59% | Split Luciferase Assay Z-score Set 1 [1, 3]: 1.43 | Split Luciferase Assay Z-score Set 2 [1, 4]: -0.60 | Split Luciferase Assay %Lum Avg [1, 7]: 105.16% | Luciferase Assay % Lum [2]: 105.07% | Luciferase Assay Z-score [2]: 0.65 | Toxicity Assay % Fluor (Clone V cells): 93.24% | Toxicity Assay Z-score (Clone V cells): -0.94

CO[C@H]1C[C@@H]2CC[C@@H](C)[C@@](O)(O2)C(=O)C(=O)N2CCCC[C@H]2C(=O)O[C@H]([C@H](C)C[C@@H]2CC[C@@H](O)[C@H](OC)C2)CC(=O)[C@H](C)/C=C(\C)[C@@H](O)[C@@H](OC)C(=O)[C@H](C)C[C@H](C)/C=C/C=C/C=C/1C [RAPAMYCIN]
Split Luciferase Assay % Lum Set 1 [1, 5]: 95.99% | Split Luciferase Assay %Lum Set 2 [1, 6]: 74.90% | Split Luciferase Assay Z-score Set 1 [1, 3]: -0.32 | Split Luciferase Assay Z-score Set 2 [1, 4]: -2.04 | Split Luciferase Assay %Lum Avg [1, 7]: 85.45% | Luciferase Assay % Lum [2]: 77.09% | Luciferase Assay Z-score [2]: -2.93 | Toxicity Assay % Fluor (Clone V cells): 110.83% | Toxicity Assay Z-score (Clone V cells): 1.51

CCCS(=O)(=O)Nc1ccc(F)c(C(=O)c2c[nH]c3ncc(-c4ccc(Cl)cc4)cc23)c1F [Vemurafenib]
Split Luciferase Assay % Lum Set 1 [1, 5]: 104.69% | Split Luciferase Assay %Lum Set 2 [1, 6]: 105.07% | Split Luciferase Assay Z-score Set 1 [1, 3]: 0.38 | Split Luciferase Assay Z-score Set 2 [1, 4]: 0.41 | Split Luciferase Assay %Lum Avg [1, 7]: 104.88% | Luciferase Assay % Lum [2]: 93.28% | Luciferase Assay Z-score [2]: -0.86 | Toxicity Assay % Fluor (Clone V cells): 86.56% | Toxicity Assay Z-score (Clone V cells): -1.88

C#CCC(Cc1cnc2nc(N)nc(N)c2n1)c1ccc(C(=O)N[C@@H](CCC(=O)O)C(=O)O)cc1 (stereo partly drawn) [Pralatrexate]
Split Luciferase Assay % Lum Set 1 [1, 5]: 117.73% | Split Luciferase Assay %Lum Set 2 [1, 6]: 106.11% | Split Luciferase Assay Z-score Set 1 [1, 3]: 1.43 | Split Luciferase Assay Z-score Set 2 [1, 4]: 0.50 | Split Luciferase Assay %Lum Avg [1, 7]: 111.92% | Luciferase Assay % Lum [2]: 103.37% | Luciferase Assay Z-score [2]: 0.43 | Toxicity Assay % Fluor (Clone V cells): 96.60% | Toxicity Assay Z-score (Clone V cells): -0.47

CNC(=O)c1cc(Oc2ccc(NC(=O)Nc3ccc(Cl)c(C(F)(F)F)c3)c(F)c2)ccn1 [Regorafenib]
Split Luciferase Assay % Lum Set 1 [1, 5]: 43.81% | Split Luciferase Assay %Lum Set 2 [1, 6]: 47.85% | Split Luciferase Assay Z-score Set 1 [1, 3]: -4.54 | Split Luciferase Assay Z-score Set 2 [1, 4]: -4.24 | Split Luciferase Assay %Lum Avg [1, 7]: 45.83% | Luciferase Assay % Lum [2]: 83.68% | Luciferase Assay Z-score [2]: -2.09 | Toxicity Assay % Fluor (Clone V cells): 88.66% | Toxicity Assay Z-score (Clone V cells): -1.59

O=P(O)(O)C(O)(Cn1ccnc1)P(=O)(O)O [Zoledronic acid]
Split Luciferase Assay % Lum Set 1 [1, 5]: 100.34% | Split Luciferase Assay %Lum Set 2 [1, 6]: 119.64% | Split Luciferase Assay Z-score Set 1 [1, 3]: 0.03 | Split Luciferase Assay Z-score Set 2 [1, 4]: 1.60 | Split Luciferase Assay %Lum Avg [1, 7]: 109.99% | Luciferase Assay % Lum [2]: 94.25% | Luciferase Assay Z-score [2]: -0.74 | Toxicity Assay % Fluor (Clone V cells): 89.11% | Toxicity Assay Z-score (Clone V cells): -1.52

CN(C)C/C=C/C(=O)Nc1cc2c(Nc3ccc(F)c(Cl)c3)ncnc2cc1O[C@H]1CCOC1 [Afatinib]
Split Luciferase Assay % Lum Set 1 [1, 5]: 72.08% | Split Luciferase Assay %Lum Set 2 [1, 6]: 61.38% | Split Luciferase Assay Z-score Set 1 [1, 3]: -2.26 | Split Luciferase Assay Z-score Set 2 [1, 4]: -3.14 | Split Luciferase Assay %Lum Avg [1, 7]: 66.73% | Luciferase Assay % Lum [2]: 73.64% | Luciferase Assay Z-score [2]: -3.38 | Toxicity Assay % Fluor (Clone V cells): 82.04% | Toxicity Assay Z-score (Clone V cells): -2.51

C[C@]12CC[C@@H]3c4ccc(O)cc4C[C@@H](CCCCCCCCC[S+]([O-])CCCC(F)(F)C(F)(F)F)[C@H]3[C@@H]1CC[C@@H]2O (stereo partly drawn) [Fulvestrant]
Split Luciferase Assay % Lum Set 1 [1, 5]: 94.90% | Split Luciferase Assay %Lum Set 2 [1, 6]: 91.55% | Split Luciferase Assay Z-score Set 1 [1, 3]: -0.41 | Split Luciferase Assay Z-score Set 2 [1, 4]: -0.69 | Split Luciferase Assay %Lum Avg [1, 7]: 93.23% | Luciferase Assay % Lum [2]: 83.45% | Luciferase Assay Z-score [2]: -2.12 | Toxicity Assay % Fluor (Clone V cells): 83.63% | Toxicity Assay Z-score (Clone V cells): -2.29

Cc1nc2c(O)cccc2c(=O)[nH]1 [NU 1025]
Split Luciferase Assay Z-score Set 1 ([1]; CC_NCI screening, biological replicate Set 1): -0.32 | Split Luciferase Assay % Lum Set 1 ([1]; CC_NCI screening, biological replicate Set 1, normalized to on-plate 0.3% DMSO controls (n=16 per plate)): 95.99% | Split Luciferase Assay Z-score Set 2 ([1]; CC_NCI screening, biological replicate Set 2): -4.33 | Split Luciferase Assay %Lum Set 2 ([1]; CC_NCI screening, biological replicate Set 2, normalized to on-plate 0.3% DMSO controls (n=16 per plate)): 46.81% | Split Luciferase Assay %Lum Avg ([1]; average of Set 1 and Set 2, normalized to 0.3% DMSO controls): 71.40% | Luciferase Assay % Lum (full-length luciferase counter-screen) [2]: 89.72% | Luciferase Assay Z-score (full-length luciferase counter-screen) [2]: -1.32 | Toxicity Assay % Fluor (CTB cell viability fluorescence) (Clone V cells): 111.16% | Toxicity Assay Z-score (CTB cell viability) (Clone V cells): 1.56

CO[C@H]1C(=O)[C@]2(C)[C@@H](OC)C[C@H]3OC[C@@]3(OC(C)=O)[C@H]2[C@H](OC(=O)c2ccccc2)[C@]2(O)C[C@H](OC(=O)[C@H](O)[C@@H](NC(=O)OC(C)(C)C)c3ccccc3)C(C)=C1C2(C)C [Cabazitaxel]
Split Luciferase Assay % Lum Set 1 [1, 5]: 101.43% | Split Luciferase Assay %Lum Set 2 [1, 6]: 112.35% | Split Luciferase Assay Z-score Set 1 [1, 3]: 0.12 | Split Luciferase Assay Z-score Set 2 [1, 4]: 1.01 | Split Luciferase Assay %Lum Avg [1, 7]: 106.89% | Luciferase Assay % Lum [2]: 90.38% | Luciferase Assay Z-score [2]: -1.23 | Toxicity Assay % Fluor (Clone V cells): 82.13% | Toxicity Assay Z-score (Clone V cells): -2.50

Cc1ccc(NC(=O)c2ccc(CN3CCN(C)CC3)cc2)cc1Nc1nc(-c2cccnc2)cs1 [MASITINIB]
Split Luciferase Assay % Lum Set 1 [1, 5]: 5.76% | Split Luciferase Assay %Lum Set 2 [1, 6]: 16.64% | Split Luciferase Assay Z-score Set 1 [1, 3]: -7.62 | Split Luciferase Assay Z-score Set 2 [1, 4]: -6.78 | Split Luciferase Assay %Lum Avg [1, 7]: 11.20% | Luciferase Assay % Lum [2]: 52.92% | Luciferase Assay Z-score [2]: -6.03 | Toxicity Assay % Fluor (Clone V cells): 86.99% | Toxicity Assay Z-score (Clone V cells): -1.82

CCCS(=O)(=O)Nc1ccc(F)c(C(=O)c2c[nH]c3ncc(-c4ccc(Cl)cc4)cc23)c1F [PLX4032]
Split Luciferase Assay % Lum Set 1 [1, 5]: 51.42% | Split Luciferase Assay %Lum Set 2 [1, 6]: 47.85% | Split Luciferase Assay Z-score Set 1 [1, 3]: -3.93 | Split Luciferase Assay Z-score Set 2 [1, 4]: -4.24 | Split Luciferase Assay %Lum Avg [1, 7]: 49.64% | Luciferase Assay % Lum [2]: 83.18% | Luciferase Assay Z-score [2]: -2.15 | Toxicity Assay % Fluor (Clone V cells): 81.90% | Toxicity Assay Z-score (Clone V cells): -2.53

CO[C@H]1C[C@@H]2CC[C@@H](C)[C@@](O)(O2)C(=O)C(=O)N2CCCC[C@H]2C(=O)O[C@H]([C@H](C)C[C@@H]2CC[C@@H](OCCO)[C@H](OC)C2)CC(=O)[C@H](C)/C=C(\C)[C@@H](O)[C@@H](OC)C(=O)[C@H](C)C[C@H](C)/C=C/C=C/C=C/1C [Everolimus]
Split Luciferase Assay % Lum Set 1 [1, 5]: 76.42% | Split Luciferase Assay %Lum Set 2 [1, 6]: 84.27% | Split Luciferase Assay Z-score Set 1 [1, 3]: -1.91 | Split Luciferase Assay Z-score Set 2 [1, 4]: -1.28 | Split Luciferase Assay %Lum Avg [1, 7]: 80.34% | Luciferase Assay % Lum [2]: 72.79% | Luciferase Assay Z-score [2]: -3.48 | Toxicity Assay % Fluor (Clone V cells): 91.22% | Toxicity Assay Z-score (Clone V cells): -1.23
